Assay results reported in ChEMBL document CHEMBL3885861, “Open TG-GATES”.

Species on record: Rattus norvegicus
Assay: Open TG-GATES - Regimen: Daily Repeat
Type: toxicity, organism-based, Sprague-Dawley
Parameters: regimen Daily Repeat, gender Male, age 6 weeks
Settings: in vivo, po, 300 mg/kg, route gavage, dose level Middle; for APTT / Bas / Eos / Fbg / Hb / Ht / Lym / MCH / MCHC / MCV / Mono / Neu / PT / Plat / RBC / Ret / WBC: tissue Blood; for KIDNEY_L / KIDNEY_R / KIDNEY_TOTAL: tissue Kidney; for LIVER: tissue Liver; for A/G / ALP / ALT / AST / BUN / CRE / Ca / Cl / DBIL / GLC / IP / K / LDH / Na / PL / RALB / TBIL / TC / TG / TP / gamma-GTP: tissue Plasma

## C[C@H]1O[C@H](O[C@H]2[C@H](O)[C@@H](O)[C@@H](O[C@H]3[C@H](O)[C@@H](O)C(O)O[C@@H]3CO)O[C@@H]2CO)[C@H](O)[C@@H](O)[C@@H]1N[C@H]1C=C(CO)[C@@H](O)[C@H](O)[C@H]1O (some centres not stated) [ACARBOSE]
72 h, time 3 day
  TERMINAL_BW: 230.6 g
  APTT: 16.3 s
  Bas: 0.2%
  Eos: 1%
  Fbg: 299.4 mg/dL
  Hb: 13.6 g/dL
  Ht: 41%
  Lym: 76.6%
  MCH: 21 pg
  MCHC: 33.3%
  MCV: 63 fL
  Mono: 3%
  Neu: 18.4%
  PT: 13 s
  Plat: 120.6 x10_4/uL
  RBC: 650.8 x10_4/ul
  Ret: 7.2%
  WBC: 104.1 x10_2/uL
  KIDNEY_L: 1.1 g
  KIDNEY_R: 1.1 g
  KIDNEY_TOTAL: 2.1 g
  LIVER: 11.2 g
  A/G: 0.9
  ALP: 1565.8 IU/L
  ALT: 39.4 IU/L
  AST: 67.2 IU/L
  BUN: 12.6 mg/dL
  CRE: 0.2 mg/dL
  Ca: 10.7 mg/dL
  Cl: 103 meq/L
  DBIL: 0.01 mg/dL
  GLC: 170.8 mg/dL
  IP: 8.2 mg/dL
  K: 3.9 meq/L
  LDH: 89.6 IU/L
  Na: 140.4 meq/L
  PL: 148.4 mg/dL
  RALB: 2.6 g/dL
  TBIL: 0.06 mg/dL
  TC: 81 mg/dL
  TG: 98 mg/dL
  TP: 5.5 g/dL
  gamma-GTP: 1.2 IU/L
[…], time 7 day
  TERMINAL_BW: 272.1 g
  APTT: 17.2 s
  Bas: 0%
  Eos: 1%
  Fbg: 323 mg/dL
  Hb: 14.1 g/dL
  Ht: 41.7%
  Lym: 74.6%
  MCH: 21.1 pg
  MCHC: 33.8%
  MCV: 62.4 fL
  Mono: 2.6%
  Neu: 21%
  PT: 13.1 s
  Plat: 128.3 x10_4/uL
  RBC: 669.4 x10_4/ul
  Ret: 6.1%
  WBC: 95.8 x10_2/uL
  KIDNEY_L: 1.1 g
  KIDNEY_R: 1.1 g
  KIDNEY_TOTAL: 2.3 g
  LIVER: 12.7 g
  A/G: 0.9
  ALP: 1607 IU/L
  ALT: 50 IU/L
  AST: 77.2 IU/L
  BUN: 16.4 mg/dL
  CRE: 0.2 mg/dL
  Ca: 10.9 mg/dL
  Cl: 104.2 meq/L
  DBIL: 0.012 mg/dL
  GLC: 183.6 mg/dL
  IP: 7.5 mg/dL
  K: 4.2 meq/L
  LDH: 80.6 IU/L
  Na: 142 meq/L
  PL: 147.6 mg/dL
  RALB: 2.6 g/dL
  TBIL: 0.054 mg/dL
  TC: 75 mg/dL
  TG: 91.6 mg/dL
  TP: 5.7 g/dL
  gamma-GTP: 1 IU/L
[…], time 14 day
  TERMINAL_BW: 332.7 g
  APTT: 23.4 s
  Bas: 0%
  Eos: 0.8%
  Fbg: 272.2 mg/dL
  Hb: 14.8 g/dL
  Ht: 44%
  Lym: 78.8%
  MCH: 21 pg
  MCHC: 33.7%
  MCV: 62.2 fL
  Mono: 2%
  Neu: 17.8%
  PT: 13.2 s
  Plat: 126.6 x10_4/uL
  RBC: 706.8 x10_4/ul
  Ret: 5%
  WBC: 105.8 x10_2/uL
  KIDNEY_L: 1.2 g
  KIDNEY_R: 1.3 g
  KIDNEY_TOTAL: 2.5 g
  LIVER: 15.1 g
  A/G: 0.8
  ALP: 1744.6 IU/L
  ALT: 39 IU/L
  AST: 69.8 IU/L
  BUN: 16.2 mg/dL
  CRE: 0.2 mg/dL
  Ca: 10.6 mg/dL
  Cl: 105 meq/L
  DBIL: 0.01 mg/dL
  GLC: 186 mg/dL
  IP: 6.8 mg/dL
  K: 4.1 meq/L
  LDH: 95.2 IU/L
  Na: 142 meq/L
  PL: 141.6 mg/dL
  RALB: 2.7 g/dL
  TBIL: 0.05 mg/dL
  TC: 67.4 mg/dL
  TG: 135.4 mg/dL
  TP: 5.9 g/dL
  gamma-GTP: 1 IU/L
[…], time 28 day
  TERMINAL_BW: 401.7 g
  APTT: 20.2 s
  Bas: 0%
  Eos: 1%
  Fbg: 282.8 mg/dL
  Hb: 15.3 g/dL
  Ht: 44.4%
  Lym: 79.6%
  MCH: 20.2 pg
  MCHC: 34.4%
  MCV: 58.6 fL
  Mono: 2%
  Neu: 16%
  PT: 13.7 s
  Plat: 95.8 x10_4/uL
  RBC: 757.4 x10_4/ul
  Ret: 2.2%
  WBC: 88.5 x10_2/uL
  KIDNEY_L: 1.4 g
  KIDNEY_R: 1.3 g
  KIDNEY_TOTAL: 2.7 g
  LIVER: 16.3 g
  A/G: 0.8
  ALP: 1170.4 IU/L
  ALT: 46.4 IU/L
  AST: 70.8 IU/L
  BUN: 15.6 mg/dL
  CRE: 0.2 mg/dL
  Ca: 10.8 mg/dL
  Cl: 105 meq/L
  DBIL: 0.012 mg/dL
  GLC: 190.8 mg/dL
  IP: 5.9 mg/dL
  K: 4.1 meq/L
  LDH: 82.6 IU/L
  Na: 142.2 meq/L
  PL: 141.6 mg/dL
  RALB: 2.7 g/dL
  TBIL: 0.048 mg/dL
  TC: 65.4 mg/dL
  TG: 154.8 mg/dL
  TP: 6 g/dL
  gamma-GTP: 1 IU/L
